Test: physchem
Assay type: physicochemical
Method: Measurement of Log P values as provided herein was performed according to EEC directive 79/831 Annex V.A8 by HPLC (High Performance Liquid Chromatography) on reversed phase columns with the following methods: • ^[a]
If more than one Log P value is available within the same method, all the values are given and separated by “+”.
Lambda-max-values were determined using UV-spectra from 200 nm to 400 nm and the peak values of the chromatographic signals

[1] = Table 3, compounds of formula (1), method [a]: LC-UV, acidic range, 0.1% formic acid in water and acetonitrile

Row | SMILES | LogP | also measured
1 | O=C(NC(CON1C(=O)c2ccccc2C1=O)Cc1ccc(Br)cc1Cl)c1cc(Cl)ncc1Oc1cccc(C(F)F)c1 (stereo not drawn) [3-10] | 5.00^[a] | –
2 | Cc1ccc(CC(CON2C(=O)c3ccccc3C2=O)NC(=O)c2cc(Cl)ncc2Oc2cccc(C(F)F)c2)c(C)c1 (stereo not drawn) [3-11] | 4.69^[a] | –
3 | Cc1ccc(CC(CON2C(=O)c3ccccc3C2=O)NC(=O)c2cc(Cl)ncc2Oc2cccc(Cl)c2)c(C)c1 (stereo not drawn) [3-12] | 5.11^[a] | –
4 | Cc1ccc(CC(CON2C(=O)c3ccccc3C2=O)NC(=O)c2cc(Cl)ncc2Oc2cccc(C(F)(F)F)c2)c(C)c1 (stereo not drawn) [3-13] | 5.20^[a] | –
5 | NOCC(Cc1ccc(Br)cc1Cl)NC(=O)c1cc(Cl)ncc1Oc1cccc(C2CC2)c1 (stereo not drawn) [4-02] | 4.15^[a] | –
6 | NOCC(Cc1ccc(Cl)cc1Cl)NC(=O)c1cc(Cl)ncc1Oc1cccc(C2CC2)c1 (stereo not drawn) [4-03] | 4.06^[a] | –
7 | NOCC(Cc1ccc(Cl)cc1Cl)NC(=O)c1cc(Cl)ncc1Oc1cccc(C2CC2)c1F (stereo not drawn) [4-04] | 3.96^[a] | –
8 | NOCC(Cc1ccc(Br)cc1Cl)NC(=O)c1cc(Cl)ncc1Oc1cccc(C2CC2)c1F (stereo not drawn) [4-05] | 4.08^[a] | –
9 | Cc1ccc(CC(CON)NC(=O)c2cc(Cl)ncc2Oc2cccc(C3CC3)c2F)c(C)c1 (stereo not drawn) [4-06] | 3.72^[a] | –
10 | Cc1cccc(Oc2cnc(Cl)cc2C(=O)NC(CON)Cc2ccc(C)cc2C)c1 (stereo not drawn) [4-07] | 3.37^[a] | –
11 | COc1cccc(Oc2cnc(Cl)cc2C(=O)NC(CON)Cc2ccc(Br)cc2Cl)c1 (stereo not drawn) [4-08] | 3.39^[a] | –
12 | COc1cccc(Oc2cnc(Cl)cc2C(=O)NC(CON)Cc2ccc(C)cc2C)c1 (stereo not drawn) [4-09] | 3.08^[a] | –
13 | NOCC(Cc1ccc(Br)cc1Cl)NC(=O)c1cc(Cl)ncc1Oc1cccc(C(F)F)c1 (stereo not drawn) [4-10] | 3.46^[a] | –
14 | Cc1ccc(CC(CON)NC(=O)c2cc(Cl)ncc2Oc2cccc(C(F)F)c2)c(C)c1 (stereo not drawn) [4-11] | 3.09^[a] | –
15 | Cc1ccc(CC(CON)NC(=O)c2cc(Cl)ncc2Oc2cccc(Cl)c2)c(C)c1 (stereo not drawn) [4-12] | 3.35^[a] | –
16 | Cc1ccc(CC(CCN)NC(=O)c2cc(Cl)ncc2Oc2cccc(C(F)(F)F)c2)c(C)c1 (stereo not drawn) [4-13] | 2.41^[a] | –
17 | Cc1ccc(CC(CCNC(c2ccccc2)(c2ccccc2)c2ccccc2)NC(=O)c2cc(Cl)ncc2Oc2cccc(C(F)(F)F)c2)c(C)c1 (stereo not drawn) [4-14] | 5.35^[a] | –
18 | Cc1ccc(CC(CCl)NC(=O)c2c(Oc3cccc(C(F)(F)F)c3)cnc(Cl)c2F)c(C)c1 (stereo not drawn) [14-01] | 5.03^[a] | –
19 | Cc1ccc(CC(CCl)NC(=O)c2cc(Cl)ncc2Oc2cccc(C(F)(F)F)c2)c(C)c1 (stereo not drawn) [14-02] | 5.32^[a] | –
20 | Cc1ccc(CC(CCl)NC(=O)c2cc(Cl)ncc2Oc2cccc(C(F)(F)F)c2)cc1 (stereo not drawn) [14-03] | 5.00^[a] | –
21 | Cc1ccc(CC(CCl)NC(=O)c2c(Oc3cccc(C(F)(F)F)c3)cnc(Cl)c2I)c(C)c1 (stereo not drawn) [14-04] | 5.18^[a] | –
22 | COc1cc(C(=O)NC(CCl)Cc2ccc(C)cc2C)c(Oc2cccc(C(F)(F)F)c2)cn1 (stereo not drawn) [14-05] | 5.26^[a] | –
23 | Cc1ccc(CC(CCl)NC(=O)c2cc(Cl)nc(F)c2Oc2cccc(C(F)(F)F)c2)c(C)c1 (stereo not drawn) [14-06] | 5.45^[a] | –
24 | Cc1ccc(CC(CCl)NC(=O)c2cc(Cl)nc(Cl)c2Oc2cccc(C(F)(F)F)c2)c(C)c1 (stereo not drawn) [14-07] | 5.45^[a] | –
25 | Cc1cc(Br)ccc1CC(CCl)NC(=O)c1cc(Cl)ncc1Oc1cccc(C(F)(F)F)c1 (stereo not drawn) [14-08] | 5.31^[a] | –
26 | O=C(NC(CCl)Cc1ccc(C(F)(F)F)cc1Cl)c1cc(Cl)ncc1Oc1cccc(C(F)(F)F)c1 (stereo not drawn) [14-09] | 5.36^[a] | –
27 | O=C(NC(CCl)Cc1csc(C(F)(F)F)c1)c1cc(Cl)ncc1Oc1cccc(C(F)(F)F)c1 (stereo not drawn) [14-10] | 4.96^[a] | –
28 | O=C(NC(CCl)Cc1csc(Cl)c1)c1cc(Cl)ncc1Oc1cccc(C(F)(F)F)c1 (stereo not drawn) [14-11] | 4.96^[a] | –

Row | SMILES | LogP | also measured
29 | Cc1ccc(C(CCl)NC(=O)c2cc(Cl)ncc2Oc2cccc(C(F)(F)F)c2)cc1 (stereo not drawn) [14-12] | 4.49^[a] | –
30 | Cc1ccc(CC(CCl)NC(=O)c2cc(Cl)ncc2Br)c(Cl)c1 (stereo not drawn) [17-02] | 3.94^[a] | –
31 | COc1cc(C(=O)NC(CCl)Cc2ccc(C)cc2Cl)c(Br)cn1 (stereo not drawn) [17-03] | 3.94^[a] | –
32 | Cc1cc(Cl)ccc1CC(CCl)NC(=O)c1cc(Cl)ncc1Br (stereo not drawn) [17-04] | 3.98^[a] | –
33 | Cc1cccc(CC(CCl)NC(=O)c2cc(Cl)ncc2Br)c1Cl (stereo not drawn) [17-05] | 3.97 ^[a] | –
34 | O=C(O)c1c(Oc2cccc(C(F)(F)F)c2)cnc(Cl)c1F [Compound 1-01] | 2.28^[a] | –
35 | CC(=O)c1cc(C(=O)O)c(Oc2cccc(C(F)(F)F)c2)cn1 [Compound 1-02] | 2.54^[a] | –
36 | COC(=O)c1cc(C#C[Si](C)(C)C)ncc1Oc1cccc(C(F)(F)F)c1 [Compound 1-03] | 5.35^[a] | –
37 | COC(=O)c1cc(C(C)=O)ncc1Oc1cccc(C(F)(F)F)c1 [Compound 1-04] | 3.59^[a] | –
38 | C=C(OCC)c1cc(C(=O)OC)c(Oc2cccc(C(F)(F)F)c2)cn1 [Compound 1-05] | 4.70^[a] | –
39 | O=C(O)c1cc(Cl)ncc1Oc1cccc(C2CC2)c1F [Compound 1-06] | 2.97^[a] | –
40 | COC(=O)c1cc(Cl)ncc1Oc1cccc(C(F)(F)F)c1 [Compound 1-07, methyl 2-chloro-5-[3-(trifluoromethyl)phenoxy]isonicotinate] | – | chromatographic logP [1]: 3.84
41 | Cc1cccc(Oc2cnc(Cl)cc2C(=O)O)c1 [Compound 1-08] | 2.60^[a] | –
42 | COc1cccc(Oc2cnc(Cl)cc2C(=O)O)c1 [Compound 1-09] | 2.34^[a] | –
43 | O=C(O)c1cc(Cl)ncc1Oc1cccc(C(F)F)c1 [Compound 1-10] | 2.48^[a] | –
44 | O=C(O)c1cc(Cl)ncc1Oc1cccc(Cl)c1 [Compound 1-11] | 2.76^[a] | –
45 | O=C(O)c1cc(Cl)ncc1Oc1cccc(C2CC2)c1 [Compound 1-12] | 2.87^[a] | –
46 | O=C(O)c1cc(Cl)ncc1Oc1cccc(C(F)(F)F)c1 [Compound 1-13, 2-chloro-5-[3-(trifluoromethyl)phenoxy]isonicotinic acid] | – | chromatographic logP [1]: 2.84
47 | O=C(O)c1cc(Cl)nc(F)c1Oc1cccc(C(F)(F)F)c1 [Compound 1-14] | 2.95^[a] | –
48 | COc1cc(C(=O)O)c(Oc2cccc(C(F)(F)F)c2)cn1 [Compound 1-15] | 2.86^[a] | –
49 | O=C(O)c1c(Oc2cccc(C(F)(F)F)c2)cnc(Cl)c1I [Compound 1-17] | 2.49^[a] | –
50 | Cc1ccc(CC(CON2C(=O)c3ccccc3C2=O)NC(=O)OC(C)(C)C)c(Cl)c1 (stereo not drawn) [Compound 2-05] | 4.41^[a] | –
51 | Cc1ccc(CC(CON)NC(=O)c2cc(Cl)ncc2Br)c(C)c1 (stereo not drawn) [Compound 6-01] | 2.20^[a] | –
52 | Cc1ccc(CC(CON2C(=O)c3ccccc3C2=O)NC(=O)c2cc(Cl)ncc2Br)c(C)c1 (stereo not drawn) [Compound 6-02] | 4.13^[a] | –
53 | N#Cc1cc(Cl)ncc1Oc1cccc(C(F)(F)F)c1 [Compound 9-01, 2-chloro-5-[3-(trifluoromethyl)phenoxy]isonicotinonitrile] | – | chromatographic logP (Table 15, compounds of formula (9), method [a]: LC-UV, acidic range, 0.1% formic acid in water and acetonitrile): 3.77
54 | NC(=NO)c1cc(Cl)ncc1Oc1cccc(C(F)(F)F)c1 [Compound 10-01, 2-chloro-N′-hydroxy-5-[3-(trifluoromethyl)phenoxy]pyridine-4-carboximidamide] | – | chromatographic logP (Table 17, compounds of formula (10), method [a]: LC-UV, acidic range, 0.1% formic acid in water and acetonitrile): 2.41
55 | COc1ccc(C(=O)C(F)(F)ON=C(N)c2cc(Cl)ncc2Oc2cccc(C(F)(F)F)c2)cc1 [Compound 12-09, 2-chloro-N′-[1,1-difluoro-2-(4-methoxyphenyl)-2-oxoethoxy]-5-[3-(trifluoromethyl)phenoxy]pyridine-4-carboximidamide] | – | chromatographic logP (Table 17, compounds of formula (12), method [a], several values joined by + in some cells): 3.65

More lines, main results first:

Row | LogP | SMILES | also measured
56 | 3.31^[a] | Cc1ccc(CC2CON=C(c3cc(Cl)ncc3Br)N2)c(C)c1 (stereo not drawn) [7-01] | –
57 | 3.45^[a] | Clc1ccc(CC2CON=C(c3cc(Cl)ncc3Br)N2)c(Cl)c1 (stereo not drawn) [7-04] | –
58 | 3.38^[a] | Cc1ccc(CC2CON=C(c3cc(Cl)ncc3Br)N2)c(Cl)c1 (stereo not drawn) [7-05] | –
59 | 3.44^[a] | Cc1cc(Cl)ccc1CC1CON=C(c2cc(Cl)ncc2Br)N1 (stereo not drawn) [7-06] | –
60 | 3.44^[a] | Cc1cccc(CC2CON=C(c3cc(Cl)ncc3Br)N2)c1Cl (stereo not drawn) [7-07] | –
61 | 3.46^[a] | Cc1ccc(Cl)c(CC2CON=C(c3cc(Cl)ncc3Br)N2)c1 (stereo not drawn) [7-09] | –
62 | 0.69^[a] | Cc1ccc(CC(N)CC(N)=O)c(C)c1 (stereo not drawn) [13-09] | –
63 | 5.74^[a] | Cc1ccc(CC(CCl)NC(=NO)c2c(Oc3cccc(C(F)(F)F)c3)cnc(Cl)c2F)c(C)c1 (stereo not drawn) [16-01] | –
64 | 4.80^[a] | Cc1ccc(CC(CCl)NC(=NO)c2cc(Cl)ncc2Oc2cccc(C(F)(F)F)c2)c(C)c1 (stereo not drawn) [16-03] | –
65 | 4.59^[a] | Cc1ccc(CC(CCl)NC(=NO)c2cc(Cl)ncc2Oc2cccc(C(F)(F)F)c2)cc1 (stereo not drawn) [16-04] | –
66 | 5.28^[a] | Cc1ccc(CC(CCl)NC(=NO)c2c(Oc3cccc(C(F)(F)F)c3)cnc(Cl)c2I)c(C)c1 (stereo not drawn) [16-05] | –
67 | 5.16^[a] | Cc1ccc(CC(CCl)NC(=NO)c2cc(Cl)nc(F)c2Oc2cccc(C(F)(F)F)c2)c(C)c1 (stereo not drawn) [16-06] | –
68 | 5.35^[a] | Cc1ccc(CC(CCl)NC(=NO)c2cc(Cl)nc(Cl)c2Oc2cccc(C(F)(F)F)c2)c(C)c1 (stereo not drawn) [16-07] | –
69 | 4.97^[a] | ON=C(NC(CCl)Cc1ccc(C(F)(F)F)cc1Cl)c1cc(Cl)ncc1Oc1cccc(C(F)(F)F)c1 (stereo not drawn) [16-09] | –
70 | 4.59^[a] | ON=C(NC(CCl)Cc1csc(C(F)(F)F)c1)c1cc(Cl)ncc1Oc1cccc(C(F)(F)F)c1 (stereo not drawn) [16-10] | –
71 | 4.48^[a] | ON=C(NC(CCl)Cc1csc(Cl)c1)c1cc(Cl)ncc1Oc1cccc(C(F)(F)F)c1 (stereo not drawn) [16-11] | –
72 | 4.19^[a] | Cc1ccc(C(CCl)NC(=NO)c2cc(Cl)ncc2Oc2cccc(C(F)(F)F)c2)cc1 (stereo not drawn) [16-12] | –
73 | 3.85^[a] | Cc1ccc(CC(CCl)NC(=NO)c2cc(Cl)ncc2Br)c(Cl)c1 (stereo not drawn) [18-02] | –
74 | 4.12^[a] | COc1cc(C(=NO)NC(CCl)Cc2ccc(C)cc2Cl)c(Br)cn1 (stereo not drawn) [18-03] | –
75 | 2.11^[a] | OC1CON=C(c2cc(Cl)ncc2Oc2cccc(C(F)(F)F)c2)N1 (stereo not drawn) [Compound 32-01] | –

— patent US12534456B2, “Heterocyclyl pyridines as novel fungicides” (Bayer Aktiengesellschaft, priority 2020, dated 2026)
